From the CheMixHub viscosity set
Several values for one entry are separate records, joined by “and”; a condition that tells them apart may be missing. Equal entries are not always repeated.

Key:
[1] = xn = mol fraction of the nth substance listed

C1COCCN1
101 kPa
Conditions | viscosity
293.15 K | 2.12 mPa·s and 2.282 mPa·s
303.15 K | 1.74 mPa·s
313.15 K | 1.45 mPa·s
323.15 K | 1.21 mPa·s

CC(=O)[O-].C[NH+]1CCCC1
Conditions | viscosity [mPa·s]
298.15 K, 100 kPa | 3.78

CC(C)Br
101 kPa
Conditions | viscosity [mPa·s]
298.15 K | 0.4981
303.15 K | 0.4835
308.15 K | 0.4708
313.15 K | 0.4389
318.15 K | 0.4194

CC(CCO)CC(C)(C)C (centres undefined)
101.33 kPa
Conditions | viscosity [mPa·s]
298.15 K | 10.97
303.15 K | 10.44
308.15 K | 9.608

CC(O)CO (centres undefined)
viscosity
Conditions | 293.15 K | 298.15 K | 303.15 K | 308.15 K | 313 K | 313.15 K | 318.15 K | 323.15 K
100 kPa | 54.6 mPa·s and 58.75 mPa·s and 59.2 mPa·s | – | 33.06 mPa·s | 25.31 mPa·s and 24.9 mPa·s | – | 19.65 mPa·s and 19.3 mPa·s | – | 12.53 mPa·s and 12.54 mPa·s and 12.51 mPa·s
101 kPa | – | – | 34.28 mPa·s and 33.1 mPa·s | – | 20.2 mPa·s | 20.43 mPa·s and 19.65 mPa·s and 21.46 mPa·s | – | 12.2 mPa·s
101.3 kPa | 57.2 mPa·s | 43.5 mPa·s and 43.6 mPa·s | 32.73 mPa·s | 25.1 mPa·s and 24.8 mPa·s | – | 19.47 mPa·s and 19.47 mPa·s | 15.36 mPa·s and 15.2 mPa·s and 15.36 mPa·s | 12.34 mPa·s

CCCCC(=O)[O-].CC[NH+](CC)CCO
101 kPa
Conditions | viscosity [mPa·s]
293.15 K | 62.45
298.15 K | 47.75
303.15 K | 37.12
308.15 K | 29.31
313.15 K | 23.48
318.15 K | 19.07
323.15 K | 15.68

CCCCCCCC[P+](CC)(CC)CC.N#Cc1ccc[n-]1
100 kPa
Conditions | viscosity [mPa·s]
293.15 K | 272
298.15 K | 189
303.15 K | 140
313.15 K | 82

CCCCn1cc[n+](C)c1.COP(=O)([O-])OC
101 kPa
Conditions | viscosity [mPa·s]
293.15 K | 895.4
298.15 K | 608.9
303.15 K | 426
308.15 K | 305.8
313.15 K | 224.9
318.15 K | 168.9
323.15 K | 129.4

CCC[N+]1(C)CCCC1.N#C[N-]C#N
Conditions | viscosity [mPa·s]
313.15 K, 101 kPa | 18.6

Cc1ccccn1
viscosity
Conditions | 293.15 K | 298.15 K | 298.18 K | 303.15 K | 303.21 K | 308.23 K | 313.15 K | 313.29 K | 318.33 K | 323.15 K
101 kPa | 0.808 mPa·s | 0.792 mPa·s | 0.751 mPa·s | – | 0.704 mPa·s | 0.663 mPa·s | 0.628 mPa·s | 0.623 mPa·s | 0.588 mPa·s | –
101.3 kPa | – | – | – | 0.7406 mPa·s | – | – | 0.6537 mPa·s and 0.6534 mPa·s | – | – | 0.5843 mPa·s

ClC=C(Cl)Cl
Conditions | viscosity
293.15 K, 101 kPa | 0.568 mPa·s
293.15 K, 101.33 kPa | 0.572 mPa·s
298 K, 101 kPa | 0.69 mPa·s
298.15 K, 101 kPa | 0.531 mPa·s
298.15 K, 101.33 kPa | 0.529 mPa·s and 0.618 mPa·s
303 K, 101 kPa | 0.66 mPa·s
303.15 K, 101 kPa | 0.52 mPa·s and 0.523 mPa·s
303.15 K, 101.3 kPa | 0.509 mPa·s and 0.515 mPa·s
303.15 K, 101.32 kPa | 0.523 mPa·s
303.15 K, 101.33 kPa | 0.523 mPa·s and 0.515 mPa·s and 0.532 mPa·s
308 K, 101 kPa | 0.63 mPa·s
308.15 K, 101 kPa | 0.489 mPa·s
308.15 K, 101.33 kPa | 0.588 mPa·s
313 K, 101 kPa | 0.6 mPa·s
313.15 K, 101 kPa | 0.482 mPa·s and 0.531 mPa·s
313.15 K, 101.33 kPa | 0.486 mPa·s and 0.473 mPa·s
318.15 K, 101 kPa | 0.45 mPa·s
318.15 K, 101.33 kPa | 0.557 mPa·s
323.15 K, 101 kPa | 0.445 mPa·s and 0.472 mPa·s

NC1CCCCC1
101 kPa
Conditions | viscosity
298.15 K | 1.753 mPa·s (2×) and 1.773 mPa·s and 1.753 mPa·s
303.15 K | 1.656 mPa·s and 1.648 mPa·s
308.15 K | 1.325 mPa·s and 1.325 mPa·s

O=C1CCCC1
viscosity
Conditions | 298.15 K | 303.15 K | 308.15 K | 313.15 K | 318.15 K
100 kPa | – | 0.985 mPa·s | 0.931 mPa·s | 0.863 mPa·s | 0.811 mPa·s
101 kPa | 1.084 mPa·s and 1.125 mPa·s | – | 0.923 mPa·s and 0.931 mPa·s and 0.928 mPa·s | 0.861 mPa·s and 0.861 mPa·s and 0.863 mPa·s | 0.811 mPa·s
101.3 kPa | 1.074 mPa·s | – | – | – | –
101.33 kPa | – | 0.992 mPa·s | – | – | –

O=C[O-].OCC[NH2+]CCO
100 kPa
Conditions | viscosity [mPa·s]
293.15 K | 470.9
303.15 K | 242
313.15 K | 135
323.15 K | 82.25

Cc1ccccn1 + O
viscosity [mPa·s], [1]
Conditions | 298.15 K | 303.15 K | 313.15 K | 323.15 K
101 kPa, x1 = 0.02168 | 1.207 | – | – | –
101 kPa, x1 = 0.05477 | 1.711 | – | – | –
101 kPa, x1 = 0.1594 | 2.779 | – | – | –
101 kPa, x1 = 0.2977 | 3.166 | – | – | –
101 kPa, x1 = 0.6247 | 1.736 | – | – | –
101.3 kPa, x1 = 0.1 | – | 1.916 | 1.467 | 1.168
101.3 kPa, x1 = 0.2 | – | 2.506 | 1.839 | 1.42
101.3 kPa, x1 = 0.3 | – | 2.594 | 1.909 | 1.465
101.3 kPa, x1 = 0.3999 | – | 2.364 | 1.757 | 1.362
101.3 kPa, x1 = 0.4997 | – | 1.982 | 1.515 | 1.201
101.3 kPa, x1 = 0.5999 | – | 1.554 | 1.237 | 1.008
101.3 kPa, x1 = 0.7 | – | 1.234 | 1.016 | 0.8611
101.3 kPa, x1 = 0.8146 | – | 0.9988 | 0.8497 | 0.7336
101.3 kPa, x1 = 0.8999 | – | 0.8499 | 0.7339 | 0.6501

ClC=C(Cl)Cl + O=C1CCCCC1
viscosity [mPa·s], [1], 101.33 kPa
Conditions | x1 = 0.1122 | x1 = 0.2059 | x1 = 0.3057 | x1 = 0.4263 | x1 = 0.4957 | x1 = 0.4987 | x1 = 0.6177 | x1 = 0.7064 | x1 = 0.7889 | x1 = 0.9152
298.15 K | 1.589 | 1.365 | 1.215 | 1.069 | – | 0.988 | 0.883 | 0.803 | 0.739 | 0.666
308.15 K | 1.339 | 1.174 | 1.062 | 0.944 | 0.878 | – | 0.789 | 0.723 | 0.68 | 0.618
318.15 K | 1.158 | 1.034 | 0.933 | 0.835 | 0.791 | – | 0.719 | 0.672 | 0.633 | 0.582
